Laboratory results taken from BindingDB's records for doi:10.1021/acsmedchemlett.6b00363 (Philipps University Marburg, 2017).

Legend:
[1] = molecular target: Beta-2 adrenergic receptor (Homo sapiens, UniProt P07550); assay: Displacement of [3H](-)CGP12177 from human beta2-AR expressed in CHOK1 cells after 2 hrs by TopCount microscintillation counting method
[2] = molecular target: Beta-1 adrenergic receptor (Homo sapiens, UniProt P08588); assay: Displacement of [3H](-)CGP12177 from human beta1-AR expressed in CHOK1 cells after 2 hrs by TopCount microscintillation counting method
Chain of Beta-1 adrenergic receptor (P08588 whole entry): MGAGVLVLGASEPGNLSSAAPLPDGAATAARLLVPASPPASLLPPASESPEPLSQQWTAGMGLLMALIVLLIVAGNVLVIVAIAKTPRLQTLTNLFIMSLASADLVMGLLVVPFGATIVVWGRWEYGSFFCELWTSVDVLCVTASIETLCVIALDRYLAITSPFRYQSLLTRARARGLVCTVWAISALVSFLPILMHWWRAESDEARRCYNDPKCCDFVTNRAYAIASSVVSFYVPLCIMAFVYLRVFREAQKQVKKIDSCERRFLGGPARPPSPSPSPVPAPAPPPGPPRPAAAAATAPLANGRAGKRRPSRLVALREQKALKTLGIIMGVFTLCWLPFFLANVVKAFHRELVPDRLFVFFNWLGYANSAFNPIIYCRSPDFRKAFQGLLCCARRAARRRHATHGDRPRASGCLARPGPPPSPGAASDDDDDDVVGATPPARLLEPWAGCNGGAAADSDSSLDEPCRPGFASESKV

Chain of Beta-2 adrenergic receptor (P07550 whole entry): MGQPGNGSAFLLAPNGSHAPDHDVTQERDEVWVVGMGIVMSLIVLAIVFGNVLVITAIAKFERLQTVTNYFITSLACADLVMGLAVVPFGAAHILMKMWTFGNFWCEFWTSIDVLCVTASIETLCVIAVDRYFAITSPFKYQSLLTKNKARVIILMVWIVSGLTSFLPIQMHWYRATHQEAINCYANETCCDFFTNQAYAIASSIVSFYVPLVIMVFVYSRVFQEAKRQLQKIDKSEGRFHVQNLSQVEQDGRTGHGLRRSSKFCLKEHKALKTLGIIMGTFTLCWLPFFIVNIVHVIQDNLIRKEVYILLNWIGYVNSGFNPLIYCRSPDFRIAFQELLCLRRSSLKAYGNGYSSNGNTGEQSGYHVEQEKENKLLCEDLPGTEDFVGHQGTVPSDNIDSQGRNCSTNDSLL

Row | Structure (SMILES) | Kd [1] [µM] | Kd [2] [µM]
1 | Cc1cc(O)c(CN(C)C)c2c1C(=O)/C(=C/c1ccccc1)O2 | 25.1 | 46.8
2 | CN(C)CCOc1ccc2ccccc2c1C=O |  | 97.7
3 | C[n+]1c(/C=C/Nc2ccccc2)sc2ccccc21 |  | 257
4 | Cc1cc(O)c(CN2CCCC2)c2c1C(=O)/C(=C/c1cc3ccccc3o1)O2 | 14.5 | 38
5 | CCCCN(C)Cc1c(O)cc(C)c2c1O/C(=C\c1cc3cc(Br)ccc3o1)C2=O | 17.8 | 
